Key:
[1] = test system: enterovirus; experiment: case report Example 5, treatment of chronic fatigue; assay type: in vivo, human; settings: before oxymatrine
Procedure: A person developed debilitating fatigue, sore throat, oral ulcers, vertigo, headaches and cognitive dysfunction two months after having a flu-like illness. […] Approximately four years later, the patient started taking oxymatrine. After an initial increase of gastrointestinal symptoms for the first two weeks, the patient tolerated 500 mg per day of oxymatrine.
The symptoms continued for two weeks and resolved after stopping oxymatrine. […] They continued to improve for 12 months after taking the medication.

[2] = test system: coxsackievirus B; settings: in vitro; mechanism not defined; cited from earlier work
[3] = test system: echoviruses; settings: in vitro; mechanism not defined; cited from earlier work
[4] = test system: Coxsackievirus B; settings: intravenous matrine; 0% in the placebo-treated group; cited from earlier work

SMILES: CC(C)[C@H](N)C(=O)OCCOCn1cnc2c(=O)[nH]c(N)nc21 [valacyclovir, reference compound]
- clinical response [1]: did not respond

SMILES: O=C1CCC[C@@H]2[C@H]3CCCN4CCC[C@@H](CN12)[C@@H]34 [matrine]
- growth inhibition of coxsackievirus B in cell cultures [2]: growth inhibition
- growth inhibition of echoviruses in cell cultures [3]: growth inhibition
- patients with improvement of cardiac function, increase in lymphocyte number and function, and loss of viral markers [4]: more than 90%
